Measurements: patent US20130203647A1, “DELIVERY OF H[…]” (UNIVERSITY COLLEGE LONDON, priority 2010, published 2013)
Non-standard residues stand in square brackets, D forms with d. Residues, ends and D or L forms follow the SMILES beside them. ξ: configuration not given here. *: point of attachment. Palmitoyl = CCCCCCCCCCCCCCCC(=O)*; ξY = NC(Cc1ccc(O)cc1)C(=O)O; ξR = N=C(N)NCCCC(N)C(=O)O; ξF = NC(Cc1ccccc1)C(=O)O; ξL = CC(C)CC(N)C(=O)O

Assays:
[1] = Pharmacokinetics: brain levels after intravenous administration (UPLC-MS/MS); type: in vivo; conditions: ICR (CD-1) mice, dalargin dose of 30 mg kg-1, FIG. 1
Experimental: (§1) ICR (CD-1) male out bred mice (18-24 g, 4 weeks old, Harlan, Oxon, UK) were used for the pharmacokinetics evaluations while ICR (CD-1) male out bred mice (22-28 g, 4-5 weeks old) were used for the pharmacodynamics evaluations. The animals were housed in groups of 5 in plastic cages in controlled laboratory conditions with ambient temperature and humidity maintained at ˜22° C. and 60% respectively with a 12-hour light and dark cycle (lights on at 7:00 and off at 19:00). Food and water were available ad libitum and the animals acclimatised for 5-7 days prior to any experiments in the Animal House, School of Pharmacy, University of London (London, UK). Animals were only used once and were acclimatised in the testing environment for at least 1 hour prior to testing. […]
Groups (n=5) of animals were administered either: NaCl (0.9% w/v), Dalargin, Dalargin-GCPQA, pDal and pDal-GCPQA. […] At various time points, animals were killed and their brain, liver and plasma analysed. […]
Brain and Liver were immediately frozen in liquid Nitrogen after being taken from the mouse. […] The brain and liver weights were determined and 2 mL water per g of brain was added to each (equivalent to 2 g of solvent to 1 g of brain). […]

mice = assay: Tail flick warm water bioassay (anti-nociception); type: in vivo; conditions: ICR (CD-1) mice, intravenous, dalargin dose of 15 mg kg-1, water at 55° C., FIG. 2
Experimental: as §1, with “UK).” for “UK). Animals were only used once and were acclimatised in the testing environment for at least 1 hour prior to testing.”
Anti-nociception was assessed in mice using the tail flick warm water bioassay (17, 18). […] The response latency times, in centiseconds, recorded for each mouse to withdraw its tail by a “sharp flick” were recorded using a digital stopwatch capable of measuring 1/100th of a second. […]
Two separate withdrawal latency determinations (separated by ≧20 sec) were averaged. […] Mice not responding within 5 sec were excluded from further testing (Baseline cut-off=5 seconds) and the baseline latency was measured for all mice 2 hours prior testing. […] Briefly, percent antinociception was calculated as 100%×(test latency-baseline latency)/(10 seconds-baseline latency). […]

Compound: CCCCCCCCCCCCCCCC(=O)Oc1ccc(CC(N)C(=O)N[C@H](C)C(=O)NCC(=O)NC(Cc2ccccc2)C(=O)NC(CC(C)C)C(=O)NC(CCCNC(=N)N)C(=O)O)cc1 (stereo partly drawn) [pDal, Palmitoyl Dalargin] (H-[ξY](Palmitoyl)[dA]G[ξF][ξL][ξR]-OH)
- Detection in the brain (brain levels) [1]: detected in the brain

Compound: Dalargin
- Detection in the brain (brain levels) [1]: not detected in the brain
- Antinociceptive effect (% of Maximum Possible Effect, tail flick) (mice): unable to exert an antinociceptive effect
